Earlier results on two molecules are cited in patent US20200330378A1, “TASTE-ENHANCED C[…] EMULSION SYRUP COMPOSITIONS” (ICDPHARMA LTD., priority 2018, published 2020).

For series [1] the following is noted: 75-300 mg of CBD taken daily.
For series [2] the following is noted: patients with insomnia; 160 mg dose of CBD compared to placebo.
For series [3] the following is noted: subjects given THC.
The test system of series [4] is human lung tumors implanted into rats and mice.

As to `C=C(C)[C@@H]1CCC(C)=C[C@H]1c1c(O)cc(CCCCC)cc1O` [CBD, cannabidiol], the “symptoms of REM sleep behavior disorder” value in series [1] is listed as “reduce or eliminate entirely”. For the same molecule, the length of sleep entry in series [2] is on record as “increased”.
For `CCCCCc1cc(O)c2c(c1)OC(C)(C)[C@@H]1CCC(C)=C[C@@H]21` [THC, tetrahydrocannabinol], the “amount of time to fall asleep” value in series [3] is listed as “significant decrease”. For the same molecule, the “reduction in tumor mass and volume” value in series [4] (human lung tumors implanted into rats and mice) is at most 50%. Besides, the “reduction of cancerous lesions in the lungs” value in series [4] (rats and mice) is recorded as “around 60%”.
